Source: PMC4855506 (Journal of molecular and cellular cardiology, 2011)

Experiment: coupled proteolysis-cGMP elevation bioassay with protease inhibitors
Assay type: in vitro ADME, human
[1] = Fig. 2B, 30 min, 37 °C, human kidney membranes, 293-GC-A cells, n=4

Substance: B-type natriuretic peptide [BNP]
- effect of leupeptin on degradation [1]: completely blocked the degradation
- effect of phosphoramidon on degradation [1]: failed to preserve the activity
- effect of boiling the membranes before peptide exposure (Fig. 2B, 30 min, 37 °C, 293-GC-A cells, n=4): blocked inactivation

Substance: C-type natriuretic peptide [CNP]
- effect of boiling the membranes prior to peptide exposure (Fig. 2A, 30 min, 37 °C, boiled human kidney membranes, n=8): abolished membrane-dependent inactivation
- effect of actinonin together with phosphoramidon (Fig. 2A, 30 min, 37 °C, human kidney membranes, n=8): did not further increase activity above that seen with phosphoramidon alone
- activity loss blocked by phosphoramidon (Fig. 2A, NEP inhibitor phosphoramidon, 30 min, 37 °C, human kidney membranes, n=8): about 40%
- effect of actinonin alone on inactivation (Fig. 2A, meprin inhibitor actinonin, 30 min, 37 °C, human kidney membranes, n=8): did not block inactivation
- effect of leupeptin on inactivation (Fig. 2A, serine-threonine-cysteine protease inhibitor leupeptin, 30 min, 37 °C, human kidney membranes, n=8): did not statistically increase the bioactivity
- increase of bioactivity on inhibition of NEP in kidney membranes (phosphoramidon, human kidney membranes, 30 min, 37 °C (Fig. 2A)): 8 fold

Substance: Dendroaspis natriuretic peptide [DNP]
- activity in the presence of phosphoramidon (Fig. 2C, 120 min, 37 °C, human kidney membranes, human GC-A read-out, n=4): significantly less than control values
